The source of these data is patent US20060142315A1, “Substituted biaryl piperazinyl-pyridine analogues” (priority 2003, published 2006).

Molecules are shown by their SMILES. Where two headings read alike, the source gives them in different places.

Series [1] deals with T1, T. gondii (Tg) dihydrofolate reductase (Toxoplasma gondii, UniProt Q07422). The following applies: cited from earlier work; for IC50: read-out: IC50 against Tg DHFR.
In series [2] the target is P. carinii (Pc) dihydrofolate reductase (Pneumocystis carinii, UniProt P16184). In words: Standardized spectrophotometric DHFR inhibition assay, P. carinii enzyme. As to conditions: for IC50: Pc DHFR. The class given is biochemical.
Chain of P. carinii (Pc) dihydrofolate reductase (P16184 whole entry): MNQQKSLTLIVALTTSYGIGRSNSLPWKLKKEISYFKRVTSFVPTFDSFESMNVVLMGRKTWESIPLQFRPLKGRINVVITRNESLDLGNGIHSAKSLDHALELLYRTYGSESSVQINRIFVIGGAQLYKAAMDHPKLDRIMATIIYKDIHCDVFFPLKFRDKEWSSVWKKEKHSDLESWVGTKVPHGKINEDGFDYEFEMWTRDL
Series [3] addresses M. avium (Ma) dihydrofolate reductase (Mycobacterium avium, UniProt O30463). In words: biochemical.
The next series deals with T2, rat liver DHFR (Rattus norvegicus, UniProt Q920D2).
T2 construct: rat liver DHFR; from tissue; host or cells: rat liver
T2 sequence (Q920D2 1-187): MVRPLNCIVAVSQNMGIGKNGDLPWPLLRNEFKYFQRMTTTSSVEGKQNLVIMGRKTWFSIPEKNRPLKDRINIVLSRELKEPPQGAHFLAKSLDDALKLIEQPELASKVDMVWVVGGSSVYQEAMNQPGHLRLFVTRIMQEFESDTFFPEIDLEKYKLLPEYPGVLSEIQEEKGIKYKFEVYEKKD
Put plainly: Standardized spectrophotometric DHFR inhibition assay, rat liver enzyme. The class given is biochemical.

In series [4] the target is T1, T. gondii (Tg) dihydrofolate reductase. It counts as biochemical.
The mark [5] stands for this setting: relative to rat liver DHFR, 95% confidence limits in parentheses.

Chain of M. avium (Ma) dihydrofolate reductase (O30463 1-181): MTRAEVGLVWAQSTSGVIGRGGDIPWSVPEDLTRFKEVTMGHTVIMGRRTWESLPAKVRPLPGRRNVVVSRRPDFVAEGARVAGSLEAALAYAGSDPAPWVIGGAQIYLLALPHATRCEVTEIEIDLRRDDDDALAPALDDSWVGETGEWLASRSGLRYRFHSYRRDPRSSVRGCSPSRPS
T1 sequence (Q07422 whole entry): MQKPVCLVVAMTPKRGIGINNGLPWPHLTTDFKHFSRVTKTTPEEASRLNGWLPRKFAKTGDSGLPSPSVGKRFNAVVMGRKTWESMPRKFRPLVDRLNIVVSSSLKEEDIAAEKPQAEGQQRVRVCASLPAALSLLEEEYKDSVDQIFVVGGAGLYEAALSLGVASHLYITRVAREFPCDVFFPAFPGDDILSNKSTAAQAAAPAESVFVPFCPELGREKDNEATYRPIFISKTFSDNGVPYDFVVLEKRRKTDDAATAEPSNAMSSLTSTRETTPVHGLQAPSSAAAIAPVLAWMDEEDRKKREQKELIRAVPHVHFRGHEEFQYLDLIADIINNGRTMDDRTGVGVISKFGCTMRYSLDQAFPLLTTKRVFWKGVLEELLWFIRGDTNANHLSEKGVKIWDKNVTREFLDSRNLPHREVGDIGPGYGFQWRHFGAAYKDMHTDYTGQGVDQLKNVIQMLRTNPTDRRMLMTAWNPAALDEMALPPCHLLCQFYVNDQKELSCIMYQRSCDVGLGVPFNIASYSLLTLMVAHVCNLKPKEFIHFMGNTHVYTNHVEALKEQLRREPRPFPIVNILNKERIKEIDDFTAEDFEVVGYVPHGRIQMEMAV

`Nc1nc(N)c2nc(CN3c4ccccc4C=Cc4ccccc43)cnc2n1` [Compound 40]: the “SI against Tg DHFR” value in series [1] was 40: R = N-Dibenz[b,f]azepinyl (IC50 = 0.043 μM, SI = 102)^3g.

On to `COc1cc(Cc2cnc(N)nc2N)cc(C#CCCCC(=O)O)c1OC` [Compound 49, 2,4-Diamino-5-[3′,4′-dimethoxy-5′-(5-carboxy-1-pentynyl)benzyl]-pyrimidine], for which the half-inhibitory concentration (IC50) was 0.001 µM in series [2], 0.0024 µM in series [3] and 5000 µM at rat liver DHFR.

For the compound `COc1ccc(CCCCCC(=O)O)cc1Cc1cnc(N)nc1N` [Compound 6], the IC50 in series [2] is 0.15 µM; in series [4] (Tg DHFR) it was 0.0084 µM; in series [3] (Ma DHFR), 0.016 µM; against rat liver DHFR it was 4.1 µM.

For the compound `COc1ccc(OCCCCC(=O)O)cc1Cc1cnc(N)nc1N` [Compound 1b, reference compound], the concentration for half-maximal inhibition (IC50) in series [4] turned out to be 0.11 µM; in series [3] (Ma DHFR) it was 0.058 µM.

In turn, `COc1ccc(CCCCC(=O)O)cc1Cc1cnc(N)nc1N` [Compound 5] came in with a melting point of 134 to 137 °C. In series [2], this compound showed an IC50 of 0.15 µM. In series [4] (Tg DHFR), this compound gave an IC50 of 0.058 µM. This compound also registered an IC50 in series [3] (Ma DHFR) of 0.035 µM. In addition, the IC50 against rat liver DHFR is 3.2 µM.

Turning to `COc1ccc(C#CCOc2ccccc2C(=O)O)cc1Cc1cnc(N)nc1N` [Compound 10, 2,4-Diamino-5-[2′-methoxy-5′-[3-(2″-carboxyphenoxy)propyn-1-yl]benzyl]pyrimidine], the IC50 in series [2] came out at 2.3 µM; in series [4] (Tg DHFR), 0.5 µM; in series [3], 0.036 µM; on rat liver DHFR it was 6.2 µM. In addition, in series [2] (setting [5]), the “Selectivity Index (SI) P. carinii” value was 2.7 (2.1-3.5). In addition, the “Selectivity Index (SI) T. gondii” value in series [4] (setting [5]) was 13 (9.3-17). Also, the “Selectivity Index (SI) M. avium” value in series [3] is 170 (130-230).

Consider `CCc1nc(N)nc(N)c1-c1ccc(Cl)c(N=NN2CCOCC2)c1` [Compound 37], for which, in series [1], the “SI against Tg DHFR” value is given as 37: R^1R^2 = morpholino (IC50 = 0.19 μM, SI = 140)^18 and the IC50 was 0.19 µM.

For `COc1ccc(C#CCOc2cccc(C(=O)O)c2)cc1Cc1cnc(N)nc1N` [Compound 11, 2,4-Diamino-5-[2′-methoxy-5′-[3-(3″-carboxyphenoxy)-1-propynyl]benzyl]pyrimidine], the 50% inhibitory concentration (IC50) in series [2] was determined as 5.6 µM; in series [4] it was 1.6 µM; in series [3], 0.057 µM; against rat liver DHFR it was 14 µM.

The compound `COc1ccc(C#CCCCC(=O)O)cc1Cc1cnc(N)nc1N` [Compound 3] registered a melting point of 121 to 124 °C. Moreover, the IC50 in series [2] amounted to 0.028 µM. Moreover, half-maximal inhibition in series [4] (IC50) required 0.032 µM. In series [3] (Ma DHFR), this compound returned a half-maximal inhibitory concentration (IC50) of 0.007 µM. The same compound registered a half-inhibitory concentration (IC50) against rat liver DHFR of 2.2 µM.

In the case of `CCc1nc(N)nc(N)c1-c1ccc(Cl)c(N=NN(C)C)c1` [Compound 38], the 50% inhibitory concentration (IC50) in series [1] (literature compounds of Table 2, standardized assay conditions) was 0.31 µM. Moreover, the “SI against Tg DHFR” value in series [1] (literature compounds of Table 2, Tg versus rat DHFR) is given as 61.

Turning to `COc1ccc(C#CCCCCC(=O)O)cc1Cc1cnc(N)nc1N` [Compound 4], the melting point lay in the range of 187 to 189 °C. In addition, the IC50 in series [2] came to 0.87 µM. Besides, in series [4], the IC50 was 0.072 µM. This compound also registered an IC50 in series [3] of 0.041 µM. Moreover, inhibition against rat liver DHFR was half-maximal at 25 µM (IC50).

On to `COc1ccc(OCc2cccc(C(=O)O)c2)cc1Cc1cnc(N)nc1N` [Compound 8, 2,4-Diamino-5-[2′-methoxy-5′-(3″-carboxybenzyloxy)benzyl]pyrimidine], for which the IC50 stood at 0.89 µM in series [2], 0.6 µM in series [4], 0.12 µM in series [3] and 19 µM on rat liver DHFR.

With `COc1ccc(C#CCCC(=O)O)cc1Cc1cnc(N)nc1N` [Compound 2], in series [4] (Tg DHFR), inhibition was half-maximal at 0.097 µM (IC50).

As for `COc1ccc(OCc2ccc(C(=O)O)cc2)cc1Cc1cnc(N)nc1N` [Compound 9, 2,4-Diamino-5-(2′-methoxy-5′-(4″-carboxybenzyloxy)benzyl]pyrimidine], the IC50 in series [4] (Tg DHFR) was determined as 2 µM; in series [3] (Ma DHFR), 0.06 µM; against rat liver DHFR, 21 µM.

`COc1ccc(CCCCCCC(=O)O)cc1Cc1cnc(N)nc1N` [Compound 7]: the half-maximal inhibitory concentration (IC50) in series [2] came out at 0.53 µM; in series [4], 0.03 µM; in series [3] it was 0.089 µM; at rat liver DHFR it was 4.6 µM.
